Reference: patent US20010004528A1, “USE OF 13C NUCLEAR MAGNETIC RESONANCE TO DETECT BINDING TO TARGET MOLECULES” (priority 1995, published 2001)

Biological target: T1, FKBP (Homo sapiens, UniProt P62942)
T1 construct: made in house; host or cells: E. coli
Assay: Screening for ligands using 13C/1H NMR correlation spectra of 13C-enriched FKBP
Assay type: binding
Experimental: Uniformly ^13C-enriched FKBP was prepared in accordance with the procedures detailed above. […]
Two-dimensional ^13C/^1H NMR spectra were generated at 30° C. on a Bruker DRX500 NMR spectrometer equipped with a triple resonance probe and Bruker sample changer. The ^13C/^1H HSQC spectra were acquired as 64×1024 complex points using sweep widths of 3771 Hz (^13C, t1) and 8333 Hz (^1H, t2). A delay of 1 second between scans and 8 scans per free induction decay (fid) were employed in the data collection. All NMR spectra were processed and analyzed on Silicon Graphics computers.
A first two-dimensional ^13C/^1H NMR correlation spectrum was acquired for the ^13C-labeled FKBP target molecule as described above. The FKBP target was then exposed to a library mixture of test compounds. Stock solutions of the compounds were made at 100 mM and 1 M. In addition, a combination library was prepared which contained 8-10 compounds per sample at a concentration of 100 mM for each compound.
The pH of the 1 M stock solution was adjusted with acetic acid and ethanolamine so that no pH change was observed upon a 1/10dilution with a 100 mM phosphate buffered solution (pH 7.0). It is important to adjust the pH, because small changes in pH can alter the chemical shifts of the biomolecules and complicate the interpretation of the NMR data.
The compounds in the library were selected on the basis of size (molecular weight=100-300) and molecular diversity. The molecules in the collection had different shapes (for example, flat aromatic rings(s), puckered aliphatic rings(s), straight and branched chain aliphatics with single, double, or triple bonds) and diverse functional groups (for example, carboxylic acids, esters, ethers, amines, aldehydes, ketones, and various heterocyclic rings) to maximize the possibility of discovering compounds that interact with widely diverse binding sites. […]

T1 sequence (P62942 whole entry): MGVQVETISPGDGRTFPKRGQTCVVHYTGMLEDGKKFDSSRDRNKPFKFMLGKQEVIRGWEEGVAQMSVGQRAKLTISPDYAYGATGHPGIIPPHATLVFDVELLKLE

## c1ccc(-c2ncc[nH]2)cc1 [2-phenylimidazole]
FKBP selectively 13C labeled at alanyl residues, 2-phenylimidazole 0.25 mM
  involvement of alanyl residues in binding (13C/1H correlation spectra): none of the alanyl residues are involved in the binding
FKBP selectively 13C/15N/2H labeled at valinyl and leucyl residues, 2-phenylimidazole 0.25 mM
  binding site residues from chemical shift changes in 13C/1H correlation spectra: binding is occurring at or near the Leu^97 and Val^55 residues
Uniformly 13C-enriched FKBP 0.2 mM, compound about 0.25 mM, phosphate buffer pH 6.5, 30° C.
  binding to FKBP detected by chemical shift changes in 13C/1H correlation spectra: found to bind to FKBP
